Results from ChEMBL document CHEMBL5291721, “A preclinical secondary pharmacology resource illuminates target-adverse drug reaction associations of marketed drugs” (Nat Commun, 2023).
Where a SMILES comes first, the peptide text is derived from it.

Key:
Histamine H3 receptor = Histamine H3 receptor (Homo sapiens, UniProt Q9Y5N1)
[1] = molecular target: T1, 5-hydroxytryptamine receptor 1A (Homo sapiens, UniProt P08908); format: functional, cell-based
T1 sequence (P08908 whole entry): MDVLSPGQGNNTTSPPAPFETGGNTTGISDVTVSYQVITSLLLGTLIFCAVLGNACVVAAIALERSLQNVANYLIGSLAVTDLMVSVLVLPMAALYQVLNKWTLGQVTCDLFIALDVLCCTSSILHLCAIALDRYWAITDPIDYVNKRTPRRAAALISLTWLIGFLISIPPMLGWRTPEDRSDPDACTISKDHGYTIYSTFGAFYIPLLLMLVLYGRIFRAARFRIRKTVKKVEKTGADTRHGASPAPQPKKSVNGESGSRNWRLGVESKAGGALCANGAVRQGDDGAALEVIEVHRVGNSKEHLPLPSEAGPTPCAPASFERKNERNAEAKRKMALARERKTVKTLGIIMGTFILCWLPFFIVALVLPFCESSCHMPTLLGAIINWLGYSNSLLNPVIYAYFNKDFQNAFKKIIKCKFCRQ

[2] = molecular target: 5-hydroxytryptamine receptor 2A (Homo sapiens, UniProt P28223); format: functional, cell-based
Mu-type opioid receptor = Mu-type opioid receptor (Homo sapiens, UniProt P35372); experiment: biochemical; format: functional
Estrogen receptor = molecular target: T2, Estrogen receptor (Homo sapiens, UniProt P03372)
T2 sequence (P03372 whole entry): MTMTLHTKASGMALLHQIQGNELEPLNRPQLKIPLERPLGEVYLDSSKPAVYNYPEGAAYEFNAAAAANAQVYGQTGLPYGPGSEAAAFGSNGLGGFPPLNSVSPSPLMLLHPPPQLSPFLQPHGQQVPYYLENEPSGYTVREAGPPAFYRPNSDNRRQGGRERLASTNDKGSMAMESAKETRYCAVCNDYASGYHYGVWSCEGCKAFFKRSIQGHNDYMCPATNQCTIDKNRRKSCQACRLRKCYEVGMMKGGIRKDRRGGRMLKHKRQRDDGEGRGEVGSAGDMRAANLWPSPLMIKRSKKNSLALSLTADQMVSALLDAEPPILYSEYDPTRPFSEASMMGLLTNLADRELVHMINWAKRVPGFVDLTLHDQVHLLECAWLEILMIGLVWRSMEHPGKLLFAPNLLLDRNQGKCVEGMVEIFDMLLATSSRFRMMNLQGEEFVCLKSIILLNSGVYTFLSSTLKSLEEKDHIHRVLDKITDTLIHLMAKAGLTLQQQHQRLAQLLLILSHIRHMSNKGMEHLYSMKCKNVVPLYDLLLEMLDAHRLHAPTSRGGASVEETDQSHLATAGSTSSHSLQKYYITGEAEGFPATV

Adenosine receptor A1 = molecular target: T3, Adenosine receptor A1 (Homo sapiens, UniProt P30542)
T3 sequence (P30542 whole entry): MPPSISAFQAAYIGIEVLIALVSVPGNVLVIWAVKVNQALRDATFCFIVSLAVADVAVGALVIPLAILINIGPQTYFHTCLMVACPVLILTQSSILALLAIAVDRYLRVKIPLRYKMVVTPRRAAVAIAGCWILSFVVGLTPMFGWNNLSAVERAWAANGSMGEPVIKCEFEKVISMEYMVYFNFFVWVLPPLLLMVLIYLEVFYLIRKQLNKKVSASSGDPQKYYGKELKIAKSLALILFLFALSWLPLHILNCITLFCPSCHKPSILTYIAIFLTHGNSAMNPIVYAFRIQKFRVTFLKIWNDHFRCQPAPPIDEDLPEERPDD

[3] = molecular target: 5-hydroxytryptamine receptor 2B (Homo sapiens, UniProt P41595); format: functional, cell-based
[4] = molecular target: T4, Gastrin/cholecystokinin type B receptor (Homo sapiens, UniProt P32239)
T4 sequence (P32239 whole entry): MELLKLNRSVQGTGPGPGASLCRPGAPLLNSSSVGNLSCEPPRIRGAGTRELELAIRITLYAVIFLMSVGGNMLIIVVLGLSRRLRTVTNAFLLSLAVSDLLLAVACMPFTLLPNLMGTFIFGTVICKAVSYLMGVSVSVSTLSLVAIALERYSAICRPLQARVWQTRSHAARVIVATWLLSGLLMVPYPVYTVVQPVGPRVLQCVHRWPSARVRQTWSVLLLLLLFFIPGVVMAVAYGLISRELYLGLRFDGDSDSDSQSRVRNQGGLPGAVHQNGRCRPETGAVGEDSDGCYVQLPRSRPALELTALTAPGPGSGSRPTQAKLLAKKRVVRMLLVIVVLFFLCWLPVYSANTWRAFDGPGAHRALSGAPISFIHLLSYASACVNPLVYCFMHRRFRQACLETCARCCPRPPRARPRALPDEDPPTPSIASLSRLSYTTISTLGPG

Adenosine receptor A2a = Adenosine receptor A2a (Homo sapiens, UniProt P29274)
Melanocortin receptor 3 = Melanocortin receptor 3 (Homo sapiens, UniProt P41968)
D(1A) dopamine receptor = D(1A) dopamine receptor (Homo sapiens, UniProt P21728); format: functional, cell-based
[5] = molecular target: 3',5'-cyclic-AMP phosphodiesterase 4D (Homo sapiens, UniProt Q08499); format: functional
Cannabinoid receptor 1 = Cannabinoid receptor 1 (Homo sapiens, UniProt P21554)
Note: assay procedure not described here.

Chain of D(1A) dopamine receptor (P21728 whole entry): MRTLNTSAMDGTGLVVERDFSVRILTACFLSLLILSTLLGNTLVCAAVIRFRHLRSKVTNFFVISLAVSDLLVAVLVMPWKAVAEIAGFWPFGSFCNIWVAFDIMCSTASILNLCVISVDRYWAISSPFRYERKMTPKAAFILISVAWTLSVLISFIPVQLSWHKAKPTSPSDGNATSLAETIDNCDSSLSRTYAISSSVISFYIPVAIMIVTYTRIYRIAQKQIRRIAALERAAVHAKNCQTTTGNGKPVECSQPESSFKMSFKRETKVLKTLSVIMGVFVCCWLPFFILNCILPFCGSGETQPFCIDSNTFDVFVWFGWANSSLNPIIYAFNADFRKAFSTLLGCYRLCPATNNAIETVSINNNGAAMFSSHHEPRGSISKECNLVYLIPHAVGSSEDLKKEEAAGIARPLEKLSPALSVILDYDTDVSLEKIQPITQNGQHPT
Chain of 5-hydroxytryptamine receptor 2A (P28223 whole entry): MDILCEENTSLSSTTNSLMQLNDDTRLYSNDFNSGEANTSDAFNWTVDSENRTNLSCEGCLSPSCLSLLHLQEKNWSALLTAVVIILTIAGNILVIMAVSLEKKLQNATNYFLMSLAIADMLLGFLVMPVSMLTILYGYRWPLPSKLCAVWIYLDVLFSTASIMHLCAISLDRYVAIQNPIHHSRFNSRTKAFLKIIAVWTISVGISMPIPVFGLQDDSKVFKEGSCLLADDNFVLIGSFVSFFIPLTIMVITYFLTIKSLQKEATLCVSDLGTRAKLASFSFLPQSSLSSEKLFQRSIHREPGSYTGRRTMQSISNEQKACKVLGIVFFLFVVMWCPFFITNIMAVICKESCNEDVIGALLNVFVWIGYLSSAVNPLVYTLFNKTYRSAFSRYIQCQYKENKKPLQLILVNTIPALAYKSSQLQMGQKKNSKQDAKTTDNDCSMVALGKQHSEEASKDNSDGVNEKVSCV
Chain of 5-hydroxytryptamine receptor 2B (P41595 whole entry): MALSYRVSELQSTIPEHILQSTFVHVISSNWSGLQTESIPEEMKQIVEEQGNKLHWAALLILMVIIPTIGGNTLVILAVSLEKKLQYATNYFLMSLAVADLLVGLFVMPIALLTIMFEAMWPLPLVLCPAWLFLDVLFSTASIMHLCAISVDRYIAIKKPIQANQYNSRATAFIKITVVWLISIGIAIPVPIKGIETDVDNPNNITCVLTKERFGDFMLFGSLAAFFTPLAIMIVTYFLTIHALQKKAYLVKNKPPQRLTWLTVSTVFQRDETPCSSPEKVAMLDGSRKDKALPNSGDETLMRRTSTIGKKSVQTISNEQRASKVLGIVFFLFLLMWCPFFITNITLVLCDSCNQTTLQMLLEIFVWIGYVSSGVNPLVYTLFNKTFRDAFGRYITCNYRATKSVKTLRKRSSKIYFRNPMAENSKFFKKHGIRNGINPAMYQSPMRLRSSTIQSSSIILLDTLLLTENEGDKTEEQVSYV
Chain of Melanocortin receptor 3 (P41968 whole entry): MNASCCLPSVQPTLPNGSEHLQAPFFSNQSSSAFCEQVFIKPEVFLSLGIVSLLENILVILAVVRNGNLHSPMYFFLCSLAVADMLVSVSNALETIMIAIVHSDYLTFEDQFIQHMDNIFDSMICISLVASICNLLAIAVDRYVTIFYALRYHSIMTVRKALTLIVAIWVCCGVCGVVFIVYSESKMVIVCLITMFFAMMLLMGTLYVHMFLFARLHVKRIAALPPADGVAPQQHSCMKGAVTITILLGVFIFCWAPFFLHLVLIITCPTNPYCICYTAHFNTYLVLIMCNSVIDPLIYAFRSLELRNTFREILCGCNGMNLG
Chain of Adenosine receptor A2a (P29274 whole entry): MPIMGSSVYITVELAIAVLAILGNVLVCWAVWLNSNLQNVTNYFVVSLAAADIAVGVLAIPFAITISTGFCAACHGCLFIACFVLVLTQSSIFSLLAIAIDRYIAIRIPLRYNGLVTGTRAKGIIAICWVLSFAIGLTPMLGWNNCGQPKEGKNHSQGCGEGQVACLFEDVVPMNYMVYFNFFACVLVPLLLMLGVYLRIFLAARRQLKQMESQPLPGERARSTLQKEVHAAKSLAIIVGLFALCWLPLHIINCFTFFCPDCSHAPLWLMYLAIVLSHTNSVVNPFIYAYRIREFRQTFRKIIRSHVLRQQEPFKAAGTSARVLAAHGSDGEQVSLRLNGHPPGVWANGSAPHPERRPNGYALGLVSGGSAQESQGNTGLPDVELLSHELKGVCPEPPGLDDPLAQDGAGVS
Chain of Cannabinoid receptor 1 (P21554 whole entry): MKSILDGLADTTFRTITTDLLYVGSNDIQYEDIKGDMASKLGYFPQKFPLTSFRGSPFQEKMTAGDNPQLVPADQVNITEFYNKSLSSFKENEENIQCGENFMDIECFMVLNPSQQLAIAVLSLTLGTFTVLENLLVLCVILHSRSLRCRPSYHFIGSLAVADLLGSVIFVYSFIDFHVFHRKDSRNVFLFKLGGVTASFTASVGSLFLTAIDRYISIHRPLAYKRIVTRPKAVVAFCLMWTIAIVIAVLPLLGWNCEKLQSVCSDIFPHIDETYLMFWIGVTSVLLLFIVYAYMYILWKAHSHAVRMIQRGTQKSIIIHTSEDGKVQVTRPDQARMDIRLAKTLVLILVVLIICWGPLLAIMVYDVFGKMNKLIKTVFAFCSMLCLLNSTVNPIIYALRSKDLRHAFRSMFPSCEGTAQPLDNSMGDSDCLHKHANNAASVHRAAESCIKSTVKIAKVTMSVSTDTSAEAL
Chain of Mu-type opioid receptor (P35372 whole entry): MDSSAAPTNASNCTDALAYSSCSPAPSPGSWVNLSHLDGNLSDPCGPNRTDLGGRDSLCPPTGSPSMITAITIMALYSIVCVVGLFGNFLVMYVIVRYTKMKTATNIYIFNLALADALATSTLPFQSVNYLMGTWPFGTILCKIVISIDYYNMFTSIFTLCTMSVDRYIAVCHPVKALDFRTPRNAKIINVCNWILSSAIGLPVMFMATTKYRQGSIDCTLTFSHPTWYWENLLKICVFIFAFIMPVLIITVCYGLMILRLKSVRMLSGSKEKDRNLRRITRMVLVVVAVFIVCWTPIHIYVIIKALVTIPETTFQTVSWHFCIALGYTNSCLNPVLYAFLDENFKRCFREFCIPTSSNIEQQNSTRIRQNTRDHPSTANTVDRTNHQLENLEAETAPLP
Chain of 3',5'-cyclic-AMP phosphodiesterase 4D (Q08499 whole entry): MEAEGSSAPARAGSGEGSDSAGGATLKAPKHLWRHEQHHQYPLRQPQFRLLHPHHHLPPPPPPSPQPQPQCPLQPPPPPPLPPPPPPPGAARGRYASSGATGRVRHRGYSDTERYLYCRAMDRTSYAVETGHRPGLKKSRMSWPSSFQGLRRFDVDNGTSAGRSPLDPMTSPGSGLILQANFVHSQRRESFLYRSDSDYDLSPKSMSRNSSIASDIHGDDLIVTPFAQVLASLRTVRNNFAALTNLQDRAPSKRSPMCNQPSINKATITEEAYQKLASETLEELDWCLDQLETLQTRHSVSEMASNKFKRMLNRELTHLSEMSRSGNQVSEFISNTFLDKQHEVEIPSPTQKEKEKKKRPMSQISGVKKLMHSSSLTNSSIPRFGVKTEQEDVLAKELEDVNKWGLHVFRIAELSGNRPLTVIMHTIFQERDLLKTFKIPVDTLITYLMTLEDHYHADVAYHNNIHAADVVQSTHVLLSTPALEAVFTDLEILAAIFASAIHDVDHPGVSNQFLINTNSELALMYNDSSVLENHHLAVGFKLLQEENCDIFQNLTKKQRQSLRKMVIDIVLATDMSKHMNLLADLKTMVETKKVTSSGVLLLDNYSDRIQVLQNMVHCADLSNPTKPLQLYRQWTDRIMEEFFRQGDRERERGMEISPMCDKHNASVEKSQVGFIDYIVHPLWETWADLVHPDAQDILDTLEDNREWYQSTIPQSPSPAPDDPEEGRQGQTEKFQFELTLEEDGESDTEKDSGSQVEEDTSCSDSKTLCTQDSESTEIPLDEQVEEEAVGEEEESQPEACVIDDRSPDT
Chain of Histamine H3 receptor (Q9Y5N1 whole entry): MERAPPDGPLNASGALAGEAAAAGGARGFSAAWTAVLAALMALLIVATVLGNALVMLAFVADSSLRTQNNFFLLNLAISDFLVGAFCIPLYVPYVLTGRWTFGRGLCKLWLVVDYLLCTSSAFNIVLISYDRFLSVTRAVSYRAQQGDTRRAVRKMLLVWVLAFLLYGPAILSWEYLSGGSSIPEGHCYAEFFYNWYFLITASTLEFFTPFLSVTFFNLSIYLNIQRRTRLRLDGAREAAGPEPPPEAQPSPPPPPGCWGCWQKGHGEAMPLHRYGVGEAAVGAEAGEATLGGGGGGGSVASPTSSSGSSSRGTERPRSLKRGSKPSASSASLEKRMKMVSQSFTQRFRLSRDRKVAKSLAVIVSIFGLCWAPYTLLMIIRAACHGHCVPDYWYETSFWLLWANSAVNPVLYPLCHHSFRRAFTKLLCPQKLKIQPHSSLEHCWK

Compound	AC50 (Histamine H3 receptor) [µM]	AC50 [1] [µM]	AC50 [2] [µM]	AC50 (Mu-type opioid receptor) [µM]	AC50 (Estrogen receptor) [µM]	AC50 (Adenosine receptor A1) [µM]	AC50 [3] [µM]	AC50 [4] [µM]	AC50 (Adenosine receptor A2a) [µM]	AC50 (Melanocortin receptor 3) [µM]	AC50 (D(1A) dopamine receptor) [µM]	AC50 [5] [µM]	AC50 (Cannabinoid receptor 1) [µM]
CCCO[C@H]1[C@@H]([C@@H](COCc2ccc(Cl)cc2)OCc2ccc(Cl)cc2)OC(OCC)[C@@H]1O (stereo partly drawn) [CLOBENOSIDE]	> 30	> 30	> 30	> 30	> 10	> 30	> 30	> 30	> 30	> 30	> 30	> 30	–
SITOSTEROLS	> 30	> 30	> 30	> 30	> 30	> 30	> 30	> 10	> 30	> 30	> 30	> 10	–
OCCN(CCO)c1nc(N2CCCCC2)c2nc(N(CCO)CCO)nc(N3CCCCC3)c2n1 [DIPYRIDAMOLE]	–	> 10	–	> 30	> 30	> 30	> 30	> 30	> 30	> 30	> 30	4.5	> 30
N=C(N)NC(=O)Cc1c(Cl)cccc1Cl [GUANFACINE]	–	> 30	–	> 30	–	> 30	–	> 30	> 30	> 30	> 30	> 30	> 10
Cc1cccc(Nc2ccncc2S(=O)(=O)NC(=O)NC(C)C)c1 [TORSEMIDE]	–	> 10	–	> 30	> 10	> 30	> 10	> 30	> 30	> 30	> 10	> 30	> 10
CCC1(C)CC(=O)NC1=O (stereo not drawn) [ETHOSUXIMIDE]	–	> 10	–	> 30	> 10	> 10	> 10	–	> 10	> 10	> 30	> 30	> 10
CN(C)CCOCC(=O)NC12CC3CC(CC(C3)C1)C2 [TROMANTADINE]	> 30	–	> 30	> 30	> 30	> 30	> 30	> 30	> 30	> 30	> 30	> 30	–
C[C@H](N)C(=O)N[C@@H](CCC(N)=O)C(=O)O [ALANYL GLUTAMINE] (H-Ala-Gln-OH)	> 30	–	> 30	> 30	> 30	> 30	> 30	> 30	> 30	> 30	> 30	> 30	–
CCCCOC(=O)C(=O)Nc1cccc(-c2nnn[nH]2)c1 [TAZANOLAST]	> 30	–	> 30	> 30	> 30	> 30	> 30	> 30	> 30	> 30	> 30	> 30	–
CC(=O)OCC1=C(C(=O)O)N2C(=O)[C@@H](NC(=O)CSc3ccncc3)[C@H]2SC1 [CEPHAPIRIN]	–	> 10	> 10	> 30	–	> 10	> 10	–	> 10	> 10	> 10	> 30	> 10
CCc1ccc(C(=O)C(C)CN2CCCCC2)cc1 (stereo not drawn) [EPERISONE]	1.3	–	–	> 30	–	> 30	> 30	> 30	> 30	> 30	> 30	> 30	> 30
